Source: patent publication US20120028358A1, “METHOD FOR INCREASING RETROVIRAL INFECTIVITY” (priority 2010, published 2012)

Tests used:
[1] = tested on: rat PMVEC; experiment: Gamma-retroviral infection efficiency of PMVEC (percent fluorescent cells by FACS); type: cell-based; details: for Retroviral infectivity versus control: increasing concentrations, Org 34517 0.1-30 μmol/L
Method: Cell cultures: Phoenix Retroviral Expression System ecotropic and amphotropic packaging cells were purchased from Orbigen, Inc. (San Diego, Calif.). […] Rat pulmonary microvascular endothelial cells (PMVEC), were obtained from our cell culture core at the University of South Alabama (King J, et al. Structural and functional characteristics of lung macro and microvascular endothelial phenotypes. Microvascular Res. 2004, March, 67(2). 139-151). Human glioblastoma cells (U87MG), and human mammary carcinoma cells (T47D) were obtained from ATCC. All cells were cultured in DMEM, 10% FBS, 2 mmol L-Glutamine and used for experiments at passages 4-9. All cells were grown in humidified incubators at 37° C. in 5% CO2. Cells were harvested by 0.05% trypsin/0.53 mM EDTA digestion, washed, re-suspended in cultured medium and analyzed directly by FACScan in the University of South Alabama Flow Cytometry Core. For cell cycle analysis cellular DNA was stained with […] of propridium iodide for 20 minutes as described elsewhere (48) and then analyzed by FACScan.
Vectors and delivery systems: pBMN-GFP (Orbigen, Inc., San Diego, Calif.), a retroviral vector that expresses GFP driven by the MMLV's promoter in Phoenix and other cells was used. In some experiments Murine Stem Cell Virus (MSCV) expressing mCherry and the hybrid retroviral vector Friend Murine Embryonic-stem cell Virus (FMEV) [for Friend Mink Cell Focus-forming (FMCF)/Murine Embryonic Stem cell Virus (MESV)](31) expressing DsRed2 were used in addition to MMLV. Two lentiviral vectors pLemiR (Open Biosystems, Huntsville, Ala.) and pLVX-DsRed-Monomer-C1 (Clontech Laboratories, Inc., Mountain View, Calif.) harboring turboRFP and DsRed as reporters were also used for comparison to gamma-retroviruses. Packaging cells were transfected with retroviral vectors using FuGENE 6 reagent following the manufacturer's instructions. For virus propagation, packaging cells were cultured in growth medium for 12-18 hours. Virus was collected with cultured medium, filtered, supplemented with hexadimethrine bromide (polybrene) to a final concentration of 4 μg/ml and applied directly to target cells.
Gamma-retroviral backbones containing genes encoding fluorescent proteins as reporters were propagated in Phoenix ecotropic packaging cells. Viral-conditioned supernatant was collected and applied to target cells (rat pulmonary microvascular endothelial cells, PMVEC).

[2] = biological target: T1, progesterone receptor (Homo sapiens, UniProt P06401); details: cited from earlier work
T1 sequence (P06401 1-933): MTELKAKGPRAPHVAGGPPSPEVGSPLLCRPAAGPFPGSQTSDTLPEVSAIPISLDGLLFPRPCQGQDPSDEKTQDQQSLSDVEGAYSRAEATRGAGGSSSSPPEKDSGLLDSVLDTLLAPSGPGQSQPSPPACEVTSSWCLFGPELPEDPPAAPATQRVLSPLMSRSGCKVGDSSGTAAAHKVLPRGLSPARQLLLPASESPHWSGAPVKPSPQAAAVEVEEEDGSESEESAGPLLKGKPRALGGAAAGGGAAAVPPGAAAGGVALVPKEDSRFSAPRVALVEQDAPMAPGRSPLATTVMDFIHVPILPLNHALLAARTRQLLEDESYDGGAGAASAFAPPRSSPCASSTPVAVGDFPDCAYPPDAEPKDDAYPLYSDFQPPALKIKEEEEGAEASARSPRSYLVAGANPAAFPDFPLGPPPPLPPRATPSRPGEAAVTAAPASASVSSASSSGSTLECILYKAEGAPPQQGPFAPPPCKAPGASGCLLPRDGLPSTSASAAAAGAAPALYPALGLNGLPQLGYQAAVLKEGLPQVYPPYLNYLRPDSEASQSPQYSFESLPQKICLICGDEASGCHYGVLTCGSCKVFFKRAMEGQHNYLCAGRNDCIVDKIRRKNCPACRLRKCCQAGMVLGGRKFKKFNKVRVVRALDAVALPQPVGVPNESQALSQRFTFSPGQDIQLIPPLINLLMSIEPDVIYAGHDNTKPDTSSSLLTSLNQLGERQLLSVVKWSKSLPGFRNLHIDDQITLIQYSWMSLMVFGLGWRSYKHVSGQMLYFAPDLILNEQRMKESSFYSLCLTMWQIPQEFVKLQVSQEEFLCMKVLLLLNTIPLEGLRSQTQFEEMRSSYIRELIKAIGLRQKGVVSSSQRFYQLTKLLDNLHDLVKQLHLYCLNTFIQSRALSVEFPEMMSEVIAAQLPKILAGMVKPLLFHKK

[3] = biological target: T2, glucocorticoid receptor (Homo sapiens, UniProt P04150); details: cited from earlier work
T2 sequence (P04150 1-777): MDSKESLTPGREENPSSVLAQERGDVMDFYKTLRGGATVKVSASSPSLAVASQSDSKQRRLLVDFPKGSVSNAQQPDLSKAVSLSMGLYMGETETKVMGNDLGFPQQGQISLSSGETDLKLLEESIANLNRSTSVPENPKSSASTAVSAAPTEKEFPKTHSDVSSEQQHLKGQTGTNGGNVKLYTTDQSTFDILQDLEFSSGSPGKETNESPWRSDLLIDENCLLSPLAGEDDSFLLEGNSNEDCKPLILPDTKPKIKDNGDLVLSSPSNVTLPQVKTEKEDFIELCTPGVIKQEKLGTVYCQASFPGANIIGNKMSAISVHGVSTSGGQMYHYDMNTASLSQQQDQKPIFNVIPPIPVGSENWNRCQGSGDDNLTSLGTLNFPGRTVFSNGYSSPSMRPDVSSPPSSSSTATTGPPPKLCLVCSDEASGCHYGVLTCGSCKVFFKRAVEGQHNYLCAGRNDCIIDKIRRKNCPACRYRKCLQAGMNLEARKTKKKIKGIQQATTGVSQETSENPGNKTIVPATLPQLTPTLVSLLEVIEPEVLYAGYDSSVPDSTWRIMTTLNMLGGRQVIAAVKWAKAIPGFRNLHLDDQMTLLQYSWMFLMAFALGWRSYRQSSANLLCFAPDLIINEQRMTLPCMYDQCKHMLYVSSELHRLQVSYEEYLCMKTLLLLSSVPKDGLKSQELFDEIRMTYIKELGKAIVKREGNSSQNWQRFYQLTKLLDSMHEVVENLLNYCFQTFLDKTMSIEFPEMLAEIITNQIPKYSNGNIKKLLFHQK

[4] = tested on: rat pulmonary microvascular endothelial cells (PMVEC); experiment: Percent GFP-positive (infected) target cells after conditioned medium from Phoenix cells; type: cell-based; details: conditioned medium from Phoenix cells grown with dexamethasone, plateau at 10 nmol
[5] = tested on: Phoenix cells and PMVEC; experiment: Cell growth and survival of packaging and target cells

| Structure (SMILES) | Retroviral infectivity versus control [1] | IC50 [2] [nM] | Potency in increasing retroviral infectivity relative to mifepristone [1] | IC50 [3] [nM] | Percentage of GFP-positive (infected) PMVEC [4] [%] | Cell growth ([5]; over 7 days, retrovirus producing or target cells (data not shown)) | Adverse effects on cell growth or survival ([5]; packaging or target cells) |
| --- | --- | --- | --- | --- | --- | --- | --- |
| C=C1OC(CC)=NC12CCC1C3CCC4=CC(=O)CCC4=C3C(c3ccc(C(C)=O)cc3)CC12C (centres unmarked) [7453-102, 11b-[4-(acetyl)phenyl)-4′,5′-dihydro-2′-ethyl-5′-methylenespiro[estra-4,9-dien-17b,4′-oxazole]-3-one] | no effect | 0.34 | – | – | – | – | – |
| CC#C[C@]1(O)CC[C@H]2[C@@H]3CCC4=CC(=O)CCC4=C3[C@@H](c3ccc4c(c3)OCO4)C[C@@]21C [Org 34517] | significantly increased | – | less potent than mifepristone | 17.9 | – | – | – |
| C[C@@H]1C[C@H]2[C@@H]3CCC4=CC(=O)C=C[C@]4(C)[C@@]3(F)[C@@H](O)C[C@]2(C)[C@@]1(O)C(=O)CO [dexamethasone, Dexamethasone] | – | – | – | – | 45 | no effect | did not cause any evident adverse effects |
